What was measured:
[1] = biological target: T1, human kinesin spindle protein KSP/Eg5 (Homo sapiens, UniProt P52732); experiment: Inhibition of the kinesin spindle protein KSP/Eg5 (ATPase, malachite green); type: biochemical; conditions: 10 nM KSP motor domain, 500 μM ATP, 2 h RT
T1 construct: The motor domain of the human kinesin spindle protein KSP/Eg5; purchased tebu-bio/Cytoskeleton Inc 027EG01-XL
T1 sequence (P52732 18-359 limits assumed): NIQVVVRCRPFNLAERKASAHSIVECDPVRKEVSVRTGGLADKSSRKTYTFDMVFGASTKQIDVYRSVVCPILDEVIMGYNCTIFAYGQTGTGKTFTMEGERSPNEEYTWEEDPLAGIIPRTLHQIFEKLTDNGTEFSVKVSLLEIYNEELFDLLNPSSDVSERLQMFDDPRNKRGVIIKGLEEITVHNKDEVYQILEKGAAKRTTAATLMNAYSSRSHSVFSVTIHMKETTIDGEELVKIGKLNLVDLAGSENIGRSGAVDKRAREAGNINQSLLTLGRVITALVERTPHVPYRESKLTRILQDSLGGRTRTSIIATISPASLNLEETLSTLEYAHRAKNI
Procedure, shortened: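 KSP/Eg5 motor domain (10 nM) preincubated 5 min at RT with 50 μg/ml taxol-stabilized bovine or porcine microtubules in 15 mM PIPES pH 6.8, 5 mM MgCl2, 10 mM DTT. IC50 = mean of three experiments.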

[2] = Cell permeability, flux assay using Caco-2 cells; conditions: human, Caco-2
NCI-H292 = experiment: Cytotoxic effects, MTT assay; type: cell-based; conditions: Homo sapiens, 72 h incubation
Description: The cells are cultivated by a standard method, as indicated in the […] (ATCC) for the respective cell lines.
At the end of the selected incubation time, the MTT reagent is incubated with the cells for 4 h, followed by lysis of the cells overnight by addition of the detergent. […] The proliferation of cells which were not treated with test substance but were otherwise identically treated was defined as the 100% figure.

NCI-H292 tumour model = experiment: Anti-EGFR ADCs in the NCI-H292 tumour model on single treatment; type: in vivo, female NMRI-nude mice; conditions: 2.5 mg/kg once on day 9; day 25
Description: Growth Inhibition/Regression of Experimental Tumours in the Mouse
The tumour area is determined as length×width.
When after the end of the treatment all groups of the experiment are terminated at the same time, the tumours can be removed and weighed.
C-6c. Efficacy of the Anti-EGFR Antibody Drug Conjugates in the NCI-H292 Tumour Model on Single Treatment
After the treatment, the tumour growth is monitored up to day 25.

[3] = biological target: T2, recombinant human TWEAKR protein (TPP-2305) (Homo sapiens, UniProt Q9NP84); experiment: Binding affinities by Biacore analysis; conditions: monovalent
T2 construct: purchased Fitzgerald Inc 30R-AT080
Description: Determination of Binding Affinities by Biacore Analysis:
Binding affinities of anti-TWEAKR antibodies were examined using surface plasmon resonance analysis on a Biacore T100 instrument (GE Healthcare Biacore, Inc.). The antibodies were immobilized on a CM5 sensor chip using an indirect capture reagent, anti-human IgG(Fc). […] Anti-TWEAKR antibodies were injected at a concentration of 10 μg/ml at […] for 10 sec.
Sensorgrams were generated after in-line reference cell correction, followed by subtraction of the buffer sample. The dissociation constant (KD) was calculated based on the ratio of association (kon) and dissociation (koff) constants, obtained by fitting sensorgrams using a 1:1 first order binding model.

Molecule: CC(C)(C)[C@H](c1cc(-c2cc(F)ccc2F)cn1Cc1ccccc1)N(CCCN)C(=O)CSCCCCCC(=O)NCCN1C(=O)CC(SC[C@H](N)C(=O)O)C1=O.O=C(O)C(F)(F)F.O=C(O)C(F)(F)F (stereo partly drawn) [Example 141, S-[(3R/S)-1-(2-{[6-({2-[(3-aminopropyl) {(1R)-1-[1-benzyl-4-(2,5-difluorophenyl)-1H-pyrrol-2-yl]-2,2-dimethylpropyl}amino]-2-oxoethyl}sulphanyl)hexanoyl]amino}ethyl)-2,5-dioxopyrrolidin-3-yl]-L-cysteine/trifluoroacetic acid (1:2)]
- IC50 [1]: 0.902 nM
- Papp B→A at 2 h [2]: 3 ×10⁻⁶ cm/s
- efflux ratio at 2 h [2]: 35
- IC50 (NCI-H292): 16.1 nM

Molecule: CC(C)(C)[C@H](c1cc(-c2cc(F)ccc2F)cn1Cc1ccccc1)N(CC[C@H](N)C(=O)N[C@H]1CC[C@@H](C(=O)NCCN2C(=O)CC(SC[C@H](N)C(=O)O)C2=O)C1)C(=O)CO.O=C(O)C(F)(F)F (stereo partly drawn) [Example 157, S-{1-[2-({[(1R,3S)-3-({(2S)-2-Amino-4-[{(1R)-1-[1-benzyl-4-(2,5-difluorophenyl)-1H-pyrrol-2-yl]-2,2-dimethylpropyl}(glycoloyl)amino]butanoyl}amino)cyclopentyl]carbonyl}amino)ethyl]-2,5-dioxopyrrolidin-3-yl}-L-cysteine/trifluoroacetic acid (1:1)]
- IC50 [1]: 9.61 nM
- Papp B→A at 2 h [2]: 0.77 ×10⁻⁶ cm/s
- efflux ratio at 2 h [2]: 7.2
- IC50 (NCI-H292): ≥ 500 nM

Molecule: C[C@@H](NC(=O)[C@@H](N)CCN(C(=O)CO)[C@@H](c1nc(-c2cc(F)ccc2F)cn1Cc1ccccc1)C(C)(C)C)C(=O)NCCCC[C@H](N)C(=O)O.O=C(O)C(F)(F)F [Example 159, N^6-(N-{(2S)-2-Amino-4-[{(1R)-1-[1-benzyl-4-(2,5-difluorophenyl)-1H-imidazol-2-yl]-2,2-dimethylpropyl}(glycoloyl)amino]butanoyl}-D-alanyl)-L-lysine/trifluoroacetic acid (1:1)]
- IC50 [1]: 0.311 nM
- Papp B→A at 2 h [2]: 0.7 ×10⁻⁶ cm/s
- efflux ratio at 2 h [2]: 6.1
- IC50 (NCI-H292): 114 nM

Molecule: CC(C)[C@H](NC(=O)CCCCCN1C(=O)CC(SC[C@H](N)C(=O)O)C1=O)C(=O)N[C@@H](C)C(=O)N[C@@H](CCCCNC(=O)CCNC(=O)[C@@H](N)CCN(C(=O)CO)[C@@H](c1cc(-c2cc(F)ccc2F)cn1Cc1ccccc1)C(C)(C)C)C(=O)O (stereo partly drawn) [Example 160, N^6-(N-{(2S)-2-Amino-4-[{(1R)-1-[1-benzyl-4-(2,5-difluorophenyl)-1H-pyrrol-2-yl]-2,2-dimethylpropyl}(glycoloyl)amino]butanoyl}-beta-alanyl)-N^2-N-{[6-(3-{[(2R)-2-amino-2-carboxyethyl]sulfanyl}-2,5-dioxopyrrolidin-1-yl)hexanoyl]-L-valyl-L-alanyl}-L-lysine/trifluoroacetic acid (1:1)]
- IC50 [1]: 0.681 nM
- Papp B→A at 2 h [2]: 0.16 ×10⁻⁶ cm/s
- efflux ratio at 2 h [2]: 1
- IC50 (NCI-H292): ≥ 500 nM

Molecule: CC(C)(C)[C@H](c1cc(-c2cc(F)ccc2F)cn1Cc1ccccc1)N(CC[C@H](N)C(=O)NCCN)C(=O)CO.O=C(O)C(F)(F)F [Example 198]
- IC50 [1]: 10.7 nM
- Papp B→A at 2 h [2]: 51.9 ×10⁻⁶ cm/s
- efflux ratio at 2 h [2]: 34
- IC50 (NCI-H292): 19.5 nM

Molecule: CC(C)(C)[C@H](c1cc(-c2cc(F)ccc2F)cn1Cc1ccccc1)N(CCCN)C(=O)CSC[C@H](NC(=O)CCOCCOCCOCCOCCNC(=O)CCN1C(=O)CC(SC[C@H](N)C(=O)O)C1=O)C(=O)O.O=C(O)C(F)(F)F.O=C(O)C(F)(F)F (stereo partly drawn) [Example 226, (2R)-22-[(3R/S)-3-{[(2R)-2-Amino-2-carboxyethyl]sulphanyl}-2,5-dioxopyrrolidin-1-yl]-2-[({2-[(3-aminopropyl){(1R)-1-[1-benzyl-4-(2,5-difluorophenyl)-1H-pyrrol-2-yl]-2,2-dimethylpropyl}amino]-2-oxoethyl}sulphanyl)methyl]-4,20-dioxo-7,10,13,16-tetraoxa-3,19-diazadocosan-1-oic acid/trifluoroacetic (1:2)]
- IC50 [1]: 1.49 nM
- Papp B→A at 2 h [2]: 0.3 ×10⁻⁶ cm/s
- efflux ratio at 2 h [2]: 0.2
- IC50 (NCI-H292): 222 nM

Molecule: CC(C)(C)[C@H](c1cc(-c2cc(F)ccc2F)cn1Cc1ccccc1)N(CCCN)C(=O)CSCCC(N)C(=O)O.O=C(O)C(F)(F)F.O=C(O)C(F)(F)F (stereo partly drawn) [Example 232, S-{2-[(3-Aminopropyl){(1R)-1-[1-benzyl-4-(2,5-difluorophenyl)-1H-pyrrol-2-yl]-2,2-dimethylpropyl}amino]-2-oxoethyl}homocysteine/trifluoroacetic acid (1:2)]
- IC50 [1]: 2.2 nM
- Papp B→A at 2 h [2]: 4.9 ×10⁻⁶ cm/s
- efflux ratio at 2 h [2]: 14
- IC50 (NCI-H292): 15.5 nM

Molecule: CC(C)(C)[C@H](c1nc(-c2cc(F)ccc2F)cn1Cc1ccccc1)N(CCCN)C(=O)CO [toxophor A, N-(3-aminopropyl)-N-{(1R)-1-[1-benzyl-4-(2,5-difluorophenyl)-1H-imidazol-2-yl]-2,2-dimethylpropyl}-2-hydroxyacetamide]
- T/C area (NCI-H292 tumour model): 0.87
- T/C weight (NCI-H292 tumour model): 0.82

Molecule: CC(C)(C)[C@H](c1nc(-c2cc(F)ccc2F)cn1Cc1ccccc1)N(CC[C@@H](N)CF)C(=O)CO [toxophor B, N-[(3R)-3-amino-4-fluorobutyl]-N-{(1R)-1-[1-benzyl-4-(2,5-difluorophenyl)-1H-imidazol-2-yl]-2,2-dimethylpropyl}-2-hydroxyacetamide]
- T/C area (NCI-H292 tumour model): 0.57
- T/C weight (NCI-H292 tumour model): 0.40

B1: P2D3(TPP-2196): comparative anti-TWEAKR antibody; variable domains from the patent literature, constant region added, "resulting in full-length IgGs" (protein)
light: DIVLTQSPASLAVSLGQRATISCRASKSVSTSSYSYMHWYQQKPGQPPKLLIKYTSNLESGVPARFSGSGSGTDFILNIHPVEEEDAATYYCQHSRELPWTFGGGTKLEIKRADAAPTVSIFPPSSEQLTSGGASVVCFLNNFYPKDINVKWKIDGSERQNGVLNSWTDQDSKDSTYSMSSTLTLTKDEYERHNSYTCEATHKTSTSPIVKSFNRNEC
heavy: QVSLKESGPGILQPSQTLSLTCSFSGFSLSTSGMGVSWIRQPSGKGLEWLAHIYWDDDKRYNPSLKSRLTISKDTSRNQVFLKITSVDTADTATYYCARRGPDYYGYYPMDYWGQGTSVTVSAKTTAPSVYPLAPVCGDTTGSSVTLGCLVKGYFPEPVTLTWNSGSLSSGVHTFPAVLQSDLYTLSSSVTVTSSTWPSQSITCNVAHPASSTKVDKKIEPRGPTIKPCPPCKCPAPNLLGGPSVFIFPPKIKDVLMISLSPIVTCVVVDVSEDDPDVQISWFVNNVEVHTAQTQTHREDYNSTLRVVSALPIQHQDWMSGKEFKCKVNNKDLPAPIERTISKPKGSVRAPQVYVLPPPEEEMTKKQVTLTCMVTDFMPEDIYVEWTNNGKTELNYKNTEPVLDSDGSYFMYSKLRVEKKNWVERNSYSCSVVHEGLHNHHTTKSFSRTPG
modifications: Mus Musculus
- ka [3]: 1.32e+06 M⁻¹ s⁻¹
- kd [3]: 0.000564 s⁻¹
- Kd ([3]; read-out: KD (n M )): 0.4 nM

Reference: US10022453B2 (BAYER PHARMA AKTIENGESELLSCHAFT, priority 2013, dated 2018)
